Test results from publication PMC9551036, “A selective and orally bioavailable VHL-recruiting PROTAC achieves SMARCA2 degradation in vivo” (Nature Communications, 2022).
Several values for one entry are separate records, joined by “and”; a condition that tells them apart may be missing. Equal entries are not always repeated.

How the values were obtained:
SMARCA2/4 [1] = molecular target: T1, SMARCA2/4 (Homo sapiens, UniProt P51532); experiment: SMARCA2/4 half-life (cycloheximide) and re-synthesis after compound 6 and VHL binder in HCT116 and RKO; format: cell-based; conditions: for K (one phase exponential decay) / Tau (one phase exponential decay): CHX
T1 construct: endogenous in cells; host or cells: HCT116, RKO
T1 sequence (P51532 whole entry): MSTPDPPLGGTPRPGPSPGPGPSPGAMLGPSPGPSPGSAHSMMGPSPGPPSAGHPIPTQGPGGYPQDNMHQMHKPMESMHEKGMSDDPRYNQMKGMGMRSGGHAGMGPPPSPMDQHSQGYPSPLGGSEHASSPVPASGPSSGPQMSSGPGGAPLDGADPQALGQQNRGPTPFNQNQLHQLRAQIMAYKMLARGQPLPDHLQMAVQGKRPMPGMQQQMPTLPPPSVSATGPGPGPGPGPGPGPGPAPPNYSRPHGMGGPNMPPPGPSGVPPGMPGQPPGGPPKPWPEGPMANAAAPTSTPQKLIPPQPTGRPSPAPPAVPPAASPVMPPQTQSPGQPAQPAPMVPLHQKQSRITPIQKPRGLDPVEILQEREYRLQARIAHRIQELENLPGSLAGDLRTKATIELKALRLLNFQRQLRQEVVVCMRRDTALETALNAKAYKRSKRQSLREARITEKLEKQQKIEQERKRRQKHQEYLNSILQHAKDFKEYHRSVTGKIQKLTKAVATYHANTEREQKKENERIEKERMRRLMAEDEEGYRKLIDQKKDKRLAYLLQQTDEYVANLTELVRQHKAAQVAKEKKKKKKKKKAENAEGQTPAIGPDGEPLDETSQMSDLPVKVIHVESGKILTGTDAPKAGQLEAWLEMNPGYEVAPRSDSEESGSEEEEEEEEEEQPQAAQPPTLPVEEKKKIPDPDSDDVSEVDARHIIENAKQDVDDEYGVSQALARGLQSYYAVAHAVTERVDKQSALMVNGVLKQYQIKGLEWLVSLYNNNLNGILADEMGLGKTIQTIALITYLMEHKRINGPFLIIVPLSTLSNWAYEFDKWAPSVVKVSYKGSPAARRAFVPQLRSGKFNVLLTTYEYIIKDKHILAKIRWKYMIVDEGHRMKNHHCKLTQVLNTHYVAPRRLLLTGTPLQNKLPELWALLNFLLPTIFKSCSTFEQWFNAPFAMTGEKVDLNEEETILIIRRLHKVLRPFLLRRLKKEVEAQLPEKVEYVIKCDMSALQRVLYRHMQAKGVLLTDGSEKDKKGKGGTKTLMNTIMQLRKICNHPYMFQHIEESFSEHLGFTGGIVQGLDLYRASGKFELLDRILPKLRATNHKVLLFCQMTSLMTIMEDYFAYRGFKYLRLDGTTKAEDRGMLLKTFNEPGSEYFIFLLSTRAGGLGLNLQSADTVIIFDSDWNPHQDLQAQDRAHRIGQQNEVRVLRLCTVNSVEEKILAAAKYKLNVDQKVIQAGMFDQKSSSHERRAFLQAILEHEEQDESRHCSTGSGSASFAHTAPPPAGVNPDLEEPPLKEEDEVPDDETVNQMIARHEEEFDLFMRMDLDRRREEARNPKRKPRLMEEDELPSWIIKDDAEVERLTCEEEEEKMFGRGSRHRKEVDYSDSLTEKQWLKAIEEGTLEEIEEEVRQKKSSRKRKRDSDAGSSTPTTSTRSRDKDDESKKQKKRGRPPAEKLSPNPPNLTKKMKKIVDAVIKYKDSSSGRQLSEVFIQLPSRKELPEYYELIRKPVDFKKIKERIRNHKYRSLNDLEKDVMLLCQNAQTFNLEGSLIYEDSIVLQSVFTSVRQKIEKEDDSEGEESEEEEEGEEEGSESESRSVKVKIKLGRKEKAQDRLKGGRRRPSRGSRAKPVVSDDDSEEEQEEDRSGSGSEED
Protocol: (§1) 130,000–200,000 cells were seeded in 24-well plates and incubated until settled down or overnight. Compounds were dissolved in DMSO and added to cells in indicated concentrations using a digital dispenser following an optional media change. […] For SMARCA2/4 half-life determination, 150,000 or 200,000 cells were seeded in 24-well plates. […] For SMARCA2/4 re-synthesis measurements, 200,000 cells were seeded in 24-well plates. The next day, 100 nM compound 6 was added for 4 h to degrade SMARCA2/4, and a sample was taken as baseline for normalisation. […] Medium was removed, cells were washed with PBS and lysed with 80 µl Lysis Buffer (MSD Tris Lysis Buffer (#R60TX-2) + Halt Inhibitor Cocktail (100x) + Benzonase 0.5 µL/ml). Samples were frozen at −80 °C and thawed at room temperature before use. Samples were transferred to a V-bottom plate and insoluble debris was pelleted by centrifugation for 5 min at maximum speed. The supernatant was transferred to a fresh plate. Master Mix and Ladder were prepared according to manufacturer’s instructions for 12–230 kDa Wes Separation Module, 8 × 25 capillary cartridges, Protein Simple #SM-W004 with Anti-Rabbit Detection Module for Wes, Peggy Sue or Sally Sue, Protein Simple #DM-001. 4.8 µl lysate were mixed with 1.2 µl Master Mix to achieve a protein concentration of ~0.5 µg/µl. Antibodies were diluted in Antibody Diluent II (SMARCA2 Sigma #HPA029981 RRID:AB_10602406 1:25–100, SMARCA4 Cell Signalling #49360 clone D1Q7F RRID:AB_2728743 1:15–120 or Abcam #ab110641 clone EPNCIR111A RRID:AB_10861578 1:60, GAPDH Abcam #ab9485 RRID:AB_307275 1:250). Wes plates were prepared and run according to manufacturer’s instructions. Proteins were quantified with accompanying Compass Software. SMARCA2/4 protein levels were normalised to GAPDH. […] Where applicable, curves were fitted using a 4-parametric logistic model.

SMARCA2/4 [2] = molecular target: T2, SMARCA2/4 (Homo sapiens, UniProt P51531); experiment: as above; format: cell-based; conditions: for K (one phase exponential decay) / Tau (one phase exponential decay): CHX
T2 construct: endogenous in cells; host or cells: HCT116, RKO
T2 sequence (P51531 whole entry): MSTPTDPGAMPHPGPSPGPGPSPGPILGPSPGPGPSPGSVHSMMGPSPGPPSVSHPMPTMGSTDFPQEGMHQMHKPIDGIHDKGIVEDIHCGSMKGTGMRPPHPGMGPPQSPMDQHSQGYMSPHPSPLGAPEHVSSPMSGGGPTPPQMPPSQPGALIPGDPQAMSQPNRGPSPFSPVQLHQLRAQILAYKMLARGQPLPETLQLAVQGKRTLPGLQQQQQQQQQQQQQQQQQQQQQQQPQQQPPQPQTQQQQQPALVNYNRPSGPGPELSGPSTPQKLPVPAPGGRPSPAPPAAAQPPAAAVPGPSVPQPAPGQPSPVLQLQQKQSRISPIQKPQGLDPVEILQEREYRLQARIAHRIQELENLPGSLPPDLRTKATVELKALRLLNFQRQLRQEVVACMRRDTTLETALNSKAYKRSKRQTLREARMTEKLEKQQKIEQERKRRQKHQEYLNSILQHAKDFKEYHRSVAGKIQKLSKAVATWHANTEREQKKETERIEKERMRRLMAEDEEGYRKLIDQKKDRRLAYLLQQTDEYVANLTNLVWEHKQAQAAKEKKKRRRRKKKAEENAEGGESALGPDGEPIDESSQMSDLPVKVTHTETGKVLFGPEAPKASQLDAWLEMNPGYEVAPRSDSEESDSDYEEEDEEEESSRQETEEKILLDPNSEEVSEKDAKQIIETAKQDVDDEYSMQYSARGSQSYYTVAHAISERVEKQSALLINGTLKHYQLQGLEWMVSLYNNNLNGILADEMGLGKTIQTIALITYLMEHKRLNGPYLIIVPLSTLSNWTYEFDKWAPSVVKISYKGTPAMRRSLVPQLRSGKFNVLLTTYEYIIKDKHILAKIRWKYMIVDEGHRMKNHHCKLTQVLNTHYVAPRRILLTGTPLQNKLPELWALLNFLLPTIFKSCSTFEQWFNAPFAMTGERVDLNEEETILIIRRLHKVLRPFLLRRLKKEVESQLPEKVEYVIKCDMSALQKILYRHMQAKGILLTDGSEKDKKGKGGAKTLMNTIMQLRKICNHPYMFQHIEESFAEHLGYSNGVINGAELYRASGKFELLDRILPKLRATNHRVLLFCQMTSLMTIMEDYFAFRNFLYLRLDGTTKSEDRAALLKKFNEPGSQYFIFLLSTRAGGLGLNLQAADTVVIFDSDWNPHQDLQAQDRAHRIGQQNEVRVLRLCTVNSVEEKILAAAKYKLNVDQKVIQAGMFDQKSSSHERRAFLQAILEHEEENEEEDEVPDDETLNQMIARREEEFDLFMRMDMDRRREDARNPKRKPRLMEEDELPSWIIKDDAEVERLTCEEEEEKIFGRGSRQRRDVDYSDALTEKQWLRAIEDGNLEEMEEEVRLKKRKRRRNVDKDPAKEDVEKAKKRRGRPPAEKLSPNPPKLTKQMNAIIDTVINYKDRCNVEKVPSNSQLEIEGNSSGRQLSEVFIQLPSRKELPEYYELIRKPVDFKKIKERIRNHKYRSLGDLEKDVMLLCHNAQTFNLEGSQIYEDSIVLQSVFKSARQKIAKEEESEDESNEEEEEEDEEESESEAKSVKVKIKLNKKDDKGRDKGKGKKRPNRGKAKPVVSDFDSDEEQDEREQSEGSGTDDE
Protocol: as §1

`C[C@@H]1C[C@@H]([C@H](O)CC2CC(=O)NC(=O)C2)C(=O)[C@@H](C)C1` [CHX] was tested, and the “K (one phase exponential decay)” value (SMARCA2/4 [1]; HCT116, SM4) was 0.01934, the “Tau (one phase exponential decay)” value (SMARCA2/4 [1]; HCT116, SM4) was 51.7 h and the fraction protein remaining (SMARCA2/4 [1]; HCT116, SM4, Time CHX 1 h) was 0.9048 and 0.6354 and 0.681. For the same compound, the fraction protein remaining (SMARCA2/4 [1]; HCT116, SM4, Time CHX 2 h) was 1.063 and 0.7806 and 0.7981, the fraction protein remaining (SMARCA2/4 [1]; HCT116, SM4, Time CHX 6 h) was 0.982 and 0.7891 and 0.769 and the fraction protein remaining (SMARCA2/4 [1]; HCT116, SM4, Time CHX 18 h) was 0.6017 and 0.6088 and 0.5084. For the same compound, the fraction protein remaining (SMARCA2/4 [1]; HCT116, SM4, Time CHX 20 h) was 0.6375 and 0.6135 and 0.453, the fraction protein remaining (SMARCA2/4 [1]; HCT116, SM4, Time CHX 24 h) was 0.6439 and 0.582 and 0.7075 and the “K (one phase exponential decay)” value (SMARCA2/4 [1]; RKO, SM4) was 0.05848. For the same compound, the “Tau (one phase exponential decay)” value (SMARCA2/4 [1]; RKO, SM4) was 17.1 h, the fraction protein remaining (SMARCA2/4 [1]; RKO, SM4, Time CHX 1 h) was 0.6419 and 0.7642 and 0.7888 and the fraction protein remaining (SMARCA2/4 [1]; RKO, SM4, Time CHX 2 h) was 0.6538 and 0.6196 and 0.6177. The fraction protein remaining (SMARCA2/4 [1]; RKO, SM4, Time CHX 6 h) was 0.4106 and 0.4086 and 0.4599, the fraction protein remaining (SMARCA2/4 [1]; RKO, SM4, Time CHX 18 h) was 0.3137 and 0.4693 and 0.3349 and the fraction protein remaining (SMARCA2/4 [1]; RKO, SM4, Time CHX 20 h) was 0.3111 and 0.4007 and 0.3018. The fraction protein remaining (SMARCA2/4 [1]; RKO, SM4, Time CHX 24 h) was 0.1564 and 0.2093 and 0.1216, the “K (one phase exponential decay)” value (SMARCA2/4 [2]; HCT116, SM2) was 0.01756 and the “Tau (one phase exponential decay)” value (SMARCA2/4 [2]; HCT116, SM2) was 56.94 h. The fraction protein remaining (SMARCA2/4 [2]; HCT116, SM2, Time CHX 1 h) was 0.9134 and 0.9119 and 0.8363, the fraction protein remaining (SMARCA2/4 [2]; HCT116, SM2, Time CHX 2 h) was 1.19 and 0.984 and 1.003 and the fraction protein remaining (SMARCA2/4 [2]; HCT116, SM2, Time CHX 6 h) was 1.2436 and 0.9973 and 0.8745. For the same compound, the fraction protein remaining (SMARCA2/4 [2]; HCT116, SM2, Time CHX 18 h) was 0.8497 and 0.6816 and 0.6174, the fraction protein remaining (SMARCA2/4 [2]; HCT116, SM2, Time CHX 20 h) was 0.8836 and 0.7383 and 0.515 and the “K (one phase exponential decay)” value (SMARCA2/4 [2]; RKO, SM2) was 0.03021. For the same compound, the “Tau (one phase exponential decay)” value (SMARCA2/4 [2]; RKO, SM2) was 33.1 h, the fraction protein remaining (SMARCA2/4 [2]; RKO, SM2, Time CHX 1 h) was 0.6694 and 0.8157 and 0.6659 and the fraction protein remaining (SMARCA2/4 [2]; RKO, SM2, Time CHX 2 h) was 0.8737 and 0.9723 and 0.8342. The fraction protein remaining (SMARCA2/4 [2]; RKO, SM2, Time CHX 6 h) was 0.9472 and 0.9944 and 0.8492, the fraction protein remaining (SMARCA2/4 [2]; RKO, SM2, Time CHX 18 h) was 0.7207 and 0.4914 and 0.6074 and the fraction protein remaining (SMARCA2/4 [2]; RKO, SM2, Time CHX 20 h) was 0.6704 and 0.4369 and 0.5438.
